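Compound exposure: 48 hours, 5 concentrations, 96-well plates. TGI is the concentration that stops growth completely.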
Legend:
Experiment in all cases: inhibition of tumour cell growth, NCI panel, 48 h
SN12C renal = system: SN12C renal
NCI-H226 lung = system: NCI-H226 lung
UACC-62 melanoma = system: UACC-62 melanoma
RXF 393 renal = system: RXF 393 renal
K-562 leukemia = system: K-562 leukemia
KM12 colon = system: KM12 colon
EKVX NSCLC = system: EKVX NSCLC
BT-549 breast = system: BT-549 breast
MDA-MB-435 = system: MDA-MB-435
COLO 205 colon = system: COLO 205 colon
SK-MEL-5 melanoma = system: SK-MEL-5 melanoma
SF-268 CNS = system: SF-268 CNS
HS 578T breast = system: HS 578T breast
SNB-75 CNS = system: SNB-75 CNS

| SMILES | TGI (SN12C renal) [µM] | TGI (NCI-H226 lung) [µM] | TGI (UACC-62 melanoma) [µM] | TGI (RXF 393 renal) [µM] | TGI (K-562 leukemia) [µM] | TGI (KM12 colon) [µM] | TGI (EKVX NSCLC) [µM] | TGI (BT-549 breast) [µM] | TGI (MDA-MB-435) [µM] | TGI (COLO 205 colon) [µM] | TGI (SK-MEL-5 melanoma) [µM] | TGI (SF-268 CNS) [µM] | TGI (HS 578T breast) [µM] | TGI (SNB-75 CNS) [µM] |
| --- | --- | --- | --- | --- | --- | --- | --- | --- | --- | --- | --- | --- | --- | --- |
| S=C1NCCN1C(=S)NC1CCCCC1 | > 100 | 75.2 | 96.5 | 28.6 | > 100 | 65.3 | > 100 | 60.9 | 67.6 | 59.2 | 50.7 | > 100 | 99.2 | 72.1 |
| Cc1cc(CN(Cc2ccccc2)Cc2nc3ccccc3[nH]2)c(O)c(CN(Cc2nc3ccccc3[nH]2)Cc2nc3ccccc3[nH]2)c1 | > 100 | > 50.9 | 18.5 | 64.1 | > 26.3 | 30.5 | 99.1 | 18.3 | 36.1 | > 55.1 | 19.5 | > 100 | > 100 | > 72.3 |
| COC(=O)c1ccc(-n2c(C)nc(=O)c(-c3ccccc3)c2C)cc1 | > 100 | > 100 |  | > 100 | > 100 | > 100 | > 100 | > 100 | > 100 | > 100 | > 100 | > 100 | > 100 | > 100 |
| O=C1CC(NC2CC(=O)c3c(Br)sc(Br)c32)c2c(Br)sc(Br)c21 (configuration not stated) | 3.42 | 34.1 | 24.2 | 8.86 | > 21.5 | 6.03 | 22.7 | 38.9 | 11.2 | 8.77 | 18.2 | 26.2 | 33.2 | 31.4 |
| NC(CCC(=O)NC(CSC(=O)N(O)c1ccc(Cl)cc1)C(=O)NCC(=O)O)C(=O)O (configuration not stated) | > 0.5 | > 0.5 | > 0.5 | > 0.5 | > 0.5 | > 0.5 | > 0.5 | > 0.5 | > 0.5 | > 0.5 | > 0.5 | > 0.5 | > 0.5 | > 0.5 |
| CCOC(=O)CCC(NC(=O)c1ccc(OCc2ccc3nc(OC)c(OC)nc3c2)cc1)C(=O)OCC (configuration not stated) | > 100 | > 100 | > 100 | 90.7 | > 100 | > 100 |  | > 100 | 91.1 | 32.8 | > 100 | > 100 | > 100 | > 100 |
| c1ccc(CNCCCNCCCCNCCCNCc2ccccc2)cc1 | 15.5 | 17.2 | 21.1 | 25.7 |  | 21 | 23.1 | 33.3 | 8.91 |  | > 56.2 | 25.6 | 3.74 | 21.7 |
| c1ccc(-c2sc(-c3ccccc3)c3c2C2CCC3C2)cc1 | > 100 | 83.3 | > 100 | 84.5 | > 100 | > 100 | > 100 | > 100 | > 100 | 38.1 | 49.7 | > 100 | 70.6 |  |
| C[As](C)SCC(NC(=O)CCC(N)C(=O)O)C(=O)NCC(=O)O.Cl.c1ccncc1 (configuration not stated) | 2.14 | 1.19 | 1.13 | 0.398 |  | 3.81 | 3.08 | 1.57 | 1.07 | > 100 | 0.878 | 3.59 | 4.6 | 14.8 |
| O=CN1CCN(C(=O)c2ccc(Cl)cc2)C1=S | 28 | 80 | 29.3 | 31 | 39.6 | 25.2 | 29 | 69.2 | 28 | 41.9 |  | 35.9 | > 100 | 36.8 |
| CCNC(=S)Nc1c(C#N)c2n(c1C(=O)OCC)CCCCC2 |  | > 100 | > 100 | > 100 | > 100 | > 100 | > 100 | > 100 | > 100 | > 100 | > 100 | > 100 | > 100 | > 100 |
| O=C1CC(NCCCNC2CC(=O)c3c(Br)sc(Br)c32)c2c(Br)sc(Br)c21 (configuration not stated) | 4.77 | 12.6 | 3.86 | 3.62 |  | 3.5 | 4.8 | 4.23 | 4.28 | 5.89 | 6.04 | 11.7 | > 44.6 | 7.68 |
| CC(=O)OCC1OC(N2C(=O)CC(N)=Nc3ccccc32)C(OC(C)=O)C(OC(C)=O)C1OC(C)=O (configuration not stated) | > 100 |  | > 100 | 95.1 | > 100 | > 100 | > 100 | > 100 | > 100 | 29.7 | 46.8 | > 100 | > 100 | > 100 |

— PubChem BioAssay (NCI)
